# Results taken from patent US8129371B2, “Thienopyrimidine and pyrazolopyrimidine compounds and their use as mTOR kinase and PI3 kinase inhibitors” (Wyeth LLC, priority 2007, dated 2012).
# Like-named read-outs stand apart in the source and are kept apart here.
# Legend:
# Human mTOR (FLAG-TOR) = target: T1, Human mTOR (FLAG-TOR) (Homo sapiens, UniProt P42345); assay: Human mTOR kinase assay with purified enzyme, DELFIA format; type: biochemical
# T1 construct: FLAG
# Summary of the method: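 Purified FLAG-mTOR in HEPES pH 7.4 buffer with 10 mM MnCl2 was preincubated with inhibitor and reacted 2 h at room temperature with His6-S6K substrate, then stopped with EDTA/EGTA. Phospho-T389 S6K detected by DELFIA with Eu-labelled antibody (40 ng/mL) after plate capture; inhibition computed from signal.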
# prostate line LNCap = assay: In vitro cell culture growth assay (MTS), LNCap; type: cell-based; settings: Homo sapiens, LNCaP, 72 h, LNCap cells, three days after drug treatment
# Summary of the method: (§1)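 Plate cells; add inhibitors on day 1; after 3 days' treatment, add MTS; read A490; express as percent growth of vehicle-treated control.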
# PI3K [1] = target: T2, PI3K (Homo sapiens, UniProt P42336); assay: Fluorescence polarization assay for PI3K; type: biochemical; settings: read-out: PI3 Kinase α IC50
# T2 construct: PI3 Kinase α IC50; other: PI3 Kinase α; other: PI3 Kinase α isoform, fluorescence polarization
# T2 sequence (P42336 whole entry, canonical isoform): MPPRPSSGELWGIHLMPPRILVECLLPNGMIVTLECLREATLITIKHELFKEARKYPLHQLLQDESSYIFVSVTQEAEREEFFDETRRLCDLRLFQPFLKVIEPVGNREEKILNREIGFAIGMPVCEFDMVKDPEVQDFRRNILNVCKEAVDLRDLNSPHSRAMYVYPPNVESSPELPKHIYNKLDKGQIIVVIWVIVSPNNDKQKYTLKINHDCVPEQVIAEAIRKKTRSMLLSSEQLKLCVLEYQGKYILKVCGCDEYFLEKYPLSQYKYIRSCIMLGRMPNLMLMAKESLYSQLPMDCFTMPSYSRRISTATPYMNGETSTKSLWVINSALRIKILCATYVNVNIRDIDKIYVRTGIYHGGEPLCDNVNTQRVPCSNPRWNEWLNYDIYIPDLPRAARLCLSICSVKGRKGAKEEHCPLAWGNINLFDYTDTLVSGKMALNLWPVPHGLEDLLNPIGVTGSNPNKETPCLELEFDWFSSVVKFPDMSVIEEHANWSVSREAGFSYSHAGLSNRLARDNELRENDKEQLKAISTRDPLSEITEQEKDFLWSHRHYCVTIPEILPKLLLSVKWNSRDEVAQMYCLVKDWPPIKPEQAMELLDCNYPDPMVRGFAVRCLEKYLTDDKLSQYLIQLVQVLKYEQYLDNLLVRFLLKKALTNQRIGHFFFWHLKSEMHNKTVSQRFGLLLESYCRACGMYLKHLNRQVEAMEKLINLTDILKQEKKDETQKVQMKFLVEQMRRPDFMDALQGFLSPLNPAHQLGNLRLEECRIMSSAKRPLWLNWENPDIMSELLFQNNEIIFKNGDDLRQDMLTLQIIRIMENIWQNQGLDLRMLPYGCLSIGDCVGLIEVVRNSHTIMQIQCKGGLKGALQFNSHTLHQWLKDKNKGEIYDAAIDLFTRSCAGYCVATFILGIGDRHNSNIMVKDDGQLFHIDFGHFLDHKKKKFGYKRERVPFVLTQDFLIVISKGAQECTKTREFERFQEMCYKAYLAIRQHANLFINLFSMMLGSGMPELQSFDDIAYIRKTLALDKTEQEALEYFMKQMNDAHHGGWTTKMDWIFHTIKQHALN
# Summary of the method: (§2)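 PI3K was preincubated with compound (final DMSO 1%), and the reaction was started with PIP2/ATP substrate and run 30–60 min. It was stopped with a detector mix giving 10 nM red probe and 70 nM GST-GRP.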
# PI3K [2] = target: T3, PI3K (Homo sapiens, UniProt P48736); assay: Fluorescence polarization assay for PI3K; type: biochemical; settings: read-out: PI3 Kinase γ IC50
# T3 construct: PI3 Kinase γ IC50; other: PI3 Kinase γ; other: PI3 Kinase γ isoform, fluorescence polarization
# T3 sequence (P48736 whole entry, canonical isoform): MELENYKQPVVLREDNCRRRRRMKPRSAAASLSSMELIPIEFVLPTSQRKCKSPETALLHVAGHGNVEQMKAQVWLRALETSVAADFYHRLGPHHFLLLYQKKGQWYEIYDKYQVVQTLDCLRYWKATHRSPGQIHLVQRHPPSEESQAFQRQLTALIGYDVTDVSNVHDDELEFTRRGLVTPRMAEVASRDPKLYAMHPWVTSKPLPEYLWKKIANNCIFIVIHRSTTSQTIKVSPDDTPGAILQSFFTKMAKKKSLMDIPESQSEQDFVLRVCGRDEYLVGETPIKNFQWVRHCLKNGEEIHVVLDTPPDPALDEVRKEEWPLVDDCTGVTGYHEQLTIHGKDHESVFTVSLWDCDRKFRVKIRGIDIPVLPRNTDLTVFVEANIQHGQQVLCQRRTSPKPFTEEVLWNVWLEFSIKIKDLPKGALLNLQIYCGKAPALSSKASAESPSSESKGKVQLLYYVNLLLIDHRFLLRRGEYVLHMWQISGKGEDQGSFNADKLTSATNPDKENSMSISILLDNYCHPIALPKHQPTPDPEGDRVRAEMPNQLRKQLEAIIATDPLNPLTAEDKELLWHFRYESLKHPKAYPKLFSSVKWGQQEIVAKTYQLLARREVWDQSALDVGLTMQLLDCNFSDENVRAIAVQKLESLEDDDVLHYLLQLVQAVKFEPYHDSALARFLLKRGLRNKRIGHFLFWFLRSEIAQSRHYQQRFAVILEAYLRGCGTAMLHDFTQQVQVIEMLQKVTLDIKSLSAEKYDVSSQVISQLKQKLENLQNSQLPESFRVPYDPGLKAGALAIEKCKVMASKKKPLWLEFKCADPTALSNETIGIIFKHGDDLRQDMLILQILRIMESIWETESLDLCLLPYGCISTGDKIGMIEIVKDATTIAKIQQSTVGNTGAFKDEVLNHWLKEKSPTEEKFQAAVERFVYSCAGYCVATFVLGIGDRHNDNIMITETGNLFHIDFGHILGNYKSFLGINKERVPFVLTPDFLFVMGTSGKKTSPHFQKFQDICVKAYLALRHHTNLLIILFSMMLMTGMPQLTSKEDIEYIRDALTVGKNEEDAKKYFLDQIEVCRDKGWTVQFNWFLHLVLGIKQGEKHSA
# Summary of the method: as §2
# breast line MDA468 = assay: In vitro cell culture growth assay (MTS), MDA468; type: cell-based; settings: Homo sapiens, 72 h, MDA468 cells, three days after drug treatment
# Summary of the method: as §1
# [3] = purified human mTOR enzyme, DELFIA format
# [4] = PI3 Kinase α isoform, fluorescence polarization
# [5] = PI3 Kinase γ isoform, fluorescence polarization
SMILES,IC50 (Human mTOR (FLAG-TOR); [3]) [nM],IC50 (prostate line LNCap) [nM],IC50 (PI3K [1]; [4]) [nM],IC50 (PI3K [2]; [5]) [nM],IC50 (breast line MDA468) [nM],IC50 (Human mTOR (FLAG-TOR)) [nM],IC50 (PI3K [1]; PI3 Kinase α) [nM],IC50 (PI3K [2]; PI3 Kinase γ) [nM]
"COC(=O)N1CCC(n2ncc3c(N4C5CCC4COC5)nc(-c4ccc(NC(=O)NCCF)cc4)nc32)CC1 [Example 358, methyl 4-[6-(4-{[(2-fluoroethyl)carbamoyl]amino}phenyl)-4-(3-oxa-8-azabicyclol[3.2.1]oct-8-yl)-1H-pyrazolo[3,4-d]pyrimidin-1-yl]piperidine-1-carboxylate]",0.495,6,7700,7930,35,–,–,–
"CCOC(=O)N1CCC(n2ncc3c(N4CC5CCC(C4)O5)nc(-c4ccc(NC(=O)Nc5ccn[nH]5)cc4)nc32)CC1 [Example 39, ethyl 4-[4-(8-oxa-3-azabicyclo[3.2.1]oct-3-yl)-6-{4-[(1H-pyrazol-5-ylcarbamoyl)amino]phenyl}-1H-pyrazolo[3,4-d]pyrimidin-1-yl]piperidine-1-carboxylate]",–,2600,–,–,8000,96,5700,8880
"COC(=O)N1CCC(n2ncc3c(N4CC5CCC(C4)O5)nc(-c4ccc(NC(=O)OCCN5CCCC5)cc4)nc32)CC1 [Example 116, methyl 4-[4-(8-oxa-3-azabicyclo[3.2.1]oct-3-yl)-6-(4-{[(2-pyrrolidin-1-ylethoxy)carbonyl]amino}phenyl)-1H-pyrazolo[3,4-d]pyrimidin-1-yl]piperidine-1-carboxylate]",–,1700,–,–,4000,335,2660,6740
"Oc1ccc(Nc2nc(N3CC4CCC(C3)O4)c3sccc3n2)cc1 [Example 422, 4-{[4-(8-oxa-3-azabicyclo[3.2.1]oct-3-yl)thieno[3,2-d]pyrimidin-2-yl]amino}phenol]",270,7200,4430,> 10000,31000,–,–,–
"COC1CCC(n2ncc3c(N4CC5CCC(C4)O5)nc(-c4ccc(NC(=O)Nc5ccc(N6CCN(C)CC6)nc5)cc4)nc32)CC1 (stereo not drawn) [Example 309, 1-{4-[1-(4-methoxycyclohexyl)-4-(8-oxa-3-azabicyclo[3.2.1]oct-3-yl)-1H-pyrazolo[3,4-d]pyrimidin-6-yl]phenyl}-3-[6-(4-methylpiperazin-1-yl)pyridin-3-yl]urea]",0.385,< 1,336,2670,2,–,–,–
"COC(=O)N1CCC(n2ncc3c(N4CC5CCC(C4)O5)nc(-c4ccc(NC(=O)Nc5cccnc5)cc4)nc32)CC1 [Example 13, methyl 4-[4-(8-oxa-3-azabicyclo[3.2.1]oct-3-yl)-6-{4-[(pyridin-3-ylcarbamoyl)amino]phenyl}-1H-pyrazolo[3,4-d]pyrimidin-1-yl]piperidine-1-carboxylate]",–,15,–,–,75,0.1,613,6840
"O=C(Nc1ccc(CCO)cc1)Nc1ccc(-c2nc(N3CC4CCC(C3)O4)c3cnn(CC(F)(F)F)c3n2)cc1 [Example 260, 1-[4-(2-hydroxyethyl)phenyl]-3-{4-[4-(8-oxa-3-azabicyclo[3.2.1]oct-3-yl)-1-(2,2,2-trifluoroethyl)-1H-pyrazolo[3,4-d]pyrimidin-6-yl]phenyl}urea]",–,< 1,–,–,< 1,0.111,98,440
"Oc1cccc(-c2nc(N3C[C@@H]4C[C@H]3CO4)c3cnn(-c4ccccc4)c3n2)c1 [Example 382, 3-{4-[(1S,4S)-2-oxa-5-azabicyclo[2.2.1]hept-5-yl]-1-phenyl-1H-pyrazolo[3,4-d]pyrimidin-6-yl}phenol]",49.5,1200,1910,11600,5500,–,–,–
"N#CCCn1ncc2c(N3CC4CCC(C3)O4)nc(-c3ccc(NC(=O)Nc4ccncc4)cc3)nc21 [Example 217, 1-{4-[1-(2-cyanoethyl)-4-(8-oxa-3-azabicyclo[3.2.1]oct-3-yl)-1H-pyrazolo[3,4-d]pyrimidin-6-yl]phenyl}-3-pyridin-4-ylurea]",–,< 1,–,–,1,0.17,112,348
